The record followed here is US20180079724A1, “SULFONIC ACID DERIVATIVE COMPOUND, PHOTOACID GENERATOR, RESIST COMPOSITION, CATIONIC POLYMERIZATION INITIATOR, AND CATIONICALLY POLYMERIZABLE COMPOSITION” (ADEKA CORPORATION, priority 2015, published 2018).

Common to all, as to assay type: physicochemical
Data set [1] in a line: Acid generation rate (photodegradation rate by HPLC after 365 nm UV irradiation). The conditions noted are these: 365 nm UV 100 mW/cm^2, 1.5×10^−4 mol/L in acetonitrile/water=9/1. The protocol:
For each of the sulfonic acid derivative compound of Compound No. 4 and Comparative Compound 1, a 1.5×10^−4 mol/L acetonitrile/water mixed solution (volume ratio: acetonitrile/water=9/1) was prepared, and exactly 5.0 mL of the mixed solution was placed in a Petri dish having an inner diameter of 42 mm. Using a UV lamp and a cut filter transmitting only light having a wavelength of about 365 nm, which are manufactured by Hoya Candeo Optronics Corporation, the mixed solution was irradiated with UV having an intensity of 100 mW/cm^2. The irradiation was performed for 0.5 seconds, 1 second and 3 seconds for each solution. After this exposure, the photodegradation rate (%) was determined by HPLC as the acid generation rate.

The nature of data set [2]: UV absorption spectrum in acetonitrile. The following applies: for Maximum absorption wavelength (nm): absorption in a range of 300 nm to 400 nm; for Molar extinction coefficient ϵ (at maximum absorption wavelength): at λmax in 300 nm to 400 nm. The method, then: (§1) The sulfonic acid derivative compound of Compound No. 4 and Comparative Compound 1 represented by the formula below were each dissolved in acetonitrile, and their absorption spectra were measured using a solar photometer U-3010 to determine the values of λmax and α (molar extinction coefficient) for absorption in a range of 300 nm to 400 nm as well as the value of E at 365 nm. In addition, their solubility to propylene glycol monomethyl ether acetate at 25° C. was evaluated. As for the solubility, the concentration of each compound was increased by 1%-by-mass increments, and the concentration at which no compound was left undissolved was determined to indicate the solubility in terms of this concentration.

Data set [3] can be described thus: Solubility to propylene glycol monomethyl ether acetate. The conditions noted are these: propylene glycol monomethyl ether acetate at 25° C., 1%-by-mass increments. The method, then: as §1
A further data set in a line: Transmittance at 365 nm. The following applies: in acetonitrile. The method, then:
The sulfonic acid derivative compound of Compound No. 4 and Comparative Compound 2 represented by the formula below were each dissolved in acetonitrile, and their absorption spectra were measured using a solar photometer U-3010 to determine the transmittance at 365 nm.

`O=C1c2cccc3cccc(c23)C(=O)N1OS(=O)(=O)C(F)(F)F` [Comparative Compound 1]: the “Photodegradation rate (%)” value in data set [1] (0.5 seconds) stood at 21.4%. The “Photodegradation rate (%)” value in data set [1] (1 second) is on record as 36.9%. Further, the “Photodegradation rate (%)” value in data set [1] (3 seconds) came out at 68.4%. In data set [2], the “Molar extinction coefficient, ϵ, at 365 nm” value was 0.7 × 10^3; the “Maximum absorption wavelength (nm)” value is recorded as 336.0 nm; the “Molar extinction coefficient ϵ (at maximum absorption wavelength)” value was 1.42 × 10^4. The “Solubility (% by mass)” value in data set [3] is on record as 1.9 % by mass.
As for `CCCCc1cc2c3c(cccc3c1)C(=O)N(OS(=O)(=O)C(F)(F)F)C2=O` [Compound No. 4], the “Photodegradation rate (%)” value is 62.0% in data set [1] (0.5 seconds), 86.7% in data set [1] (1 second) and 100% in data set [1] (3 seconds). Also, the “Molar extinction coefficient, ϵ, at 365 nm” value in data set [2] is recorded as 5.40 × 10^3. Besides, the “Maximum absorption wavelength (nm)” value in data set [2] came to 339.5 nm. Also, the “Molar extinction coefficient ϵ (at maximum absorption wavelength)” value in data set [2] is reported as 1.31 × 10^4. The “Solubility (% by mass)” value in data set [3] was determined as 20 % by mass. For the same molecule, the “Transmittance at 365 nm (%)” value in “Transmittance at 365 nm” is on record as 34.1%.
On to `CCCCc1ccc2c3c(cccc13)C(=O)N(OS(=O)(=O)C(F)(F)F)C2=O` [Comparative Compound 2], for which the “Transmittance at 365 nm (%)” value in “Transmittance at 365 nm” is given as 1.1%.
